# Earlier results in US20120046351A1, “Medicinal cannabis added in food” (priority 2010, published 2012).
# Legend:
# [1] = 180 degrees C.
# people who use cannabis = details: compared with the no cannabinoid and the TCH+CBD groups
smiles,measurement,setting,value
"CCCCCc1cc(O)c2c(c1)OC(C)(C)[C@@H]1CCC(C)=C[C@@H]21 [Δ^9-THC, Tetrahydrocannabinol]",degradation of Δ^9-THC into cannabinol and dihydrocannabinol,[1],A significant percentage of Δ^9-THC being degraded
same,positive schizophrenia-like symptoms,people who use cannabis,higher levels of positive schizophrenia-like symptoms
